The supplement of paper PMC4862054

Assays:
Assay in all cases: normalised response (% of control), CellTiter-Glo; higher = more viable cells (100 = DMSO, 0 = benzethonium chloride kill control)
Details in all cases: incubation time: 72 h
[1] = tested on: MDA-MB-468
Procedure, shortened: (§1)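 A 20 µl suspension of breast cancer cells was seeded into each well of 384-well plates containing compound at 5 concentrations in 10-fold steps over a compound-specific 10,000-fold range. After 72 h incubation, CellTox Green fluorescence (485/520 nm) was read first, and CellTiter-Glo luminescence was read after 10 min at room temperature. Each plate was normalised against 0.1 % DMSO (100) and a positive kill control (0), and each value is the normalised signal at one concentration.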

[2] = tested on: BT-474
Procedure, shortened: as §1

[3] = tested on: HCC1937
Procedure, shortened: as §1

[4] = tested on: MDA-MB-453
Procedure, shortened: as §1

[5] = tested on: HCC1599
Procedure, shortened: as §1

[6] = tested on: MDA-MB-231
Procedure, shortened: as §1

[7] = tested on: SK-BR-3
Procedure, shortened: as §1

[8] = tested on: BT-549
Procedure, shortened: as §1

[9] = tested on: MCF-10A
Procedure, shortened: as §1

[10] = tested on: CAL-120
Procedure, shortened: as §1

[11] = tested on: MFM-223
Procedure, shortened: as §1

[12] = tested on: DU-4475
Procedure, shortened: as §1

[13] = tested on: CAL-85-1
Procedure, shortened: as §1

[14] = tested on: HCC1143
Procedure, shortened: as §1

[15] = tested on: HDQ-P1
Procedure, shortened: as §1

[16] = tested on: Hs578T
Procedure, shortened: as §1

[17] = tested on: CAL-51
Procedure, shortened: as §1

[18] = tested on: CAL-148
Procedure, shortened: as §1

[19] = tested on: MDA-MB-436
Procedure, shortened: as §1

SMILES	normalised response [1] [%]	normalised response [2] [%]	normalised response [3] [%]	normalised response [4] [%]	normalised response [5] [%]	normalised response [6] [%]	normalised response [7] [%]	normalised response [8] [%]	normalised response [9] [%]	normalised response [10] [%]	normalised response [11] [%]	normalised response [12] [%]	normalised response [13] [%]	normalised response [14] [%]	normalised response [15] [%]	normalised response [16] [%]	normalised response [17] [%]	normalised response [18] [%]	normalised response [19] [%]
Nc1ncn([C@@H]2O[C@H](CO)[C@@H](O)[C@H]2O)c(=O)n1 [Azacitidine] (10 nM)	103	99.9	101	105	105	94.3	110	93.4	103	99.3	96.2	102	101	99.4	99.5	97.5	113	92	105
C[C@]12CC[C@@H]3c4ccc(OC(=O)N(CCCl)CCCl)cc4CC[C@H]3[C@@H]1CC[C@@H]2O [Estramustine] (10 nM)	97.6	97	96	88.8	103	95.1	94.9	98.6	91.1	103	87.7	91.3	91.2	98.5	104	97	90.1	84.1	93.3
CC1(C)CNc2cc(NC(=O)c3cccnc3NCc3ccncc3)ccc21 [Motesanib] (10 nM)	96.8	105	99.6	106	101	91.2	76.2	95.3	93.9	97.9	93.7	99.4	92.9	98.2	93.9	98.3	123	87.4	99.4
Cc1ccc([N+](=O)[O-])cc1S(=O)(=O)N(C)/N=C/c1cnc2ccc(Br)cn12 [PIK-75] (1 nM)	94.9	89.6	94.7	100	108	92.9	99.6	99	95	92.4	92.2	95.6	92.2	93.8	98.8	97.9	73.8	96.4	88.9
O=NN(CCCl)C(=O)NCCCl [Carmustine] (10 nM)	102	93.8	101	114	97.9	91.9		100	96.6	98.9	102	101	95.6	105	94.8	105	128	93.3	98.4
Cn1cnc2c(F)c(Nc3ccc(Br)cc3Cl)c(C(=O)NOCCO)cc21 [Selumetinib] (10 nM)	94.8	89.8	97.3	96.8	95	97.2	90.6	99.9	77.4	93	90.8	95.1	107	91	86.6	99.4	107	90.6	96.3
CC(=O)N(O)CCCCCNC(=O)CCC(=O)N(O)CCCCCNC(=O)CCC(=O)N(O)CCCCCN [Deferoxamine] (1 nM)	91	94.6	93.7	94.8	120	91.8	94.8	104	99.2	106	94.7	95.6	93.2	95.1	105	100	108	91.9	101
COc1cc(F)c(F)c(Nc2ccc(I)cc2F)c1NS(=O)(=O)C1(C[C@H](O)CO)CC1 [Refametinib] (10 nM)	87.2	95.5	97.9	101	109	94.4	79.6	96.5	58.5	99.5	87.9	92	90.7	95.8	89.2	96.5	130	86.9	90.7
Oc1ncnc2[nH]ncc12 [Allopurinol] (10 nM)	99	102	99.2	109	104	99.6	106	101	107	99	108	106	98.6	103	99.5	97.5	98.1	107	96.5
C[C@]1(O)C[C@@H](c2nc(-c3ccc4ccc(-c5ccccc5)nc4c3)c3c(N)nccn32)C1 [Linsitinib] (1 nM)	93.9	98.2	91.5	90.9	106	95.3	91.5	92.6	89.5	97.7	87.5	98	92.8	91.7	105	93.2	109	98	96.4
C[C@]12CC[C@@H]3c4ccc(OC(=O)N(CCCl)CCCl)cc4CC[C@H]3[C@@H]1CC[C@@H]2O [Estramustine] (1 nM)	88.2	95.3	93.1	94.6	109	94.7	90	97	86.5	97.6	88	89.3	95	96.4	100	95.5	118	80.3	106
Nc1nc2[nH]cnc2c(=S)[nH]1 [Thioguanine] (10 nM)	99.5	93.8	96.9	87.4	112	98.2			98.7	100	97.2	98.5	99.4	101	94.6	102	85.1	105	98.8
CC1(C)CCC(CN2CCN(c3ccc(C(=O)NS(=O)(=O)c4ccc(NCC5CCOCC5)c([N+](=O)[O-])c4)c(Oc4cnc5[nH]ccc5c4)c3)CC2)=C(c2ccc(Cl)cc2)C1 [ABT-199] (10 nM)	118	97.3	99.7	97.5	104	97.2		95.7	101	91.8	100	96.2	106	99.2	97.1	103	68.3	103	102
CC(=O)c1c(C)c2cnc(Nc3ccc(N4CCNCC4)cn3)nc2n(C2CCCC2)c1=O [Palbociclib] (10 nM)	92.4	97.2	101	93.6	107	92.1	89.5	100	97.3	95.2	91.2	97.2	92	94.5	97.9	100	115	87	95.4
Cn1cc(C2=Nc3cc(NC(=O)C(N)C4CCCCC4)cc4c3C2=CNNC4=O)cn1 (stereo not drawn) (10 nM)	90.6	94	96.2	91.7	93.4	91.2	77.2	95.2	84.6	90.9	90.4	95.3	93.3	90.4	91.7	94.3	134	87.3	89.4
O=C1CN2Cc3c(ccc(Cl)c3Cl)N=C2N1 [Anagrelide] (10 nM)	100	95.5	94.8	102	100	97	94.2	101	103	96.5	99.2	101	93.8	103	98.7	97.5	115	93.9	95.2
CC1(C)CCC(CN2CCN(c3ccc(C(=O)NS(=O)(=O)c4ccc(NCC5CCOCC5)c([N+](=O)[O-])c4)c(Oc4cnc5[nH]ccc5c4)c3)CC2)=C(c2ccc(Cl)cc2)C1 [ABT-199] (1 nM)	94.1	94.8	106	101	89.5	97.4	95.4	98.9	98.3	98.9	96.8	98.2	99.5	98.6	101	104	122	100	98.5
Cc1ccc([N+](=O)[O-])cc1S(=O)(=O)N(C)/N=C/c1cnc2ccc(Br)cn12 [PIK-75] (10 nM)	82.2	83.5	90.3	79.2	96.9	88.9	74.4	101	108	86.8	92.7	97	89.3	90.2	95.5	91.5	79.1	90.3	99.1
COc1cc(F)c(F)c(Nc2ccc(I)cc2F)c1NS(=O)(=O)C1(C[C@H](O)CO)CC1 [Refametinib] (1 nM)	92.7	91.2	93.6	87.9	99.5	100	91.2	98.6	79.4	101	94.4	104	97	93.6	92.8	92.9	75.2	101	91.6
COc1cc2c(cc1O)CC[C@@H]1[C@@H]2CC[C@]2(C)[C@@H](O)CC[C@@H]12 [2-methoxyestradiol] (10 nM)	98.2	97.8	98.1	96.4	92.7	97.7		94	94.6	101	96.5	101	103	103	101	96.8	97.5	91.3	106
Cc1sc2c(c1C)C(c1ccc(Cl)cc1)=N[C@@H](CC(=O)OC(C)(C)C)c1nnc(C)n1-2 [(+)JQ1] (10 nM)	98.3	108	94.5	111	104	110		96.2	107	94.8	108	104	101	105	101	98.1	107	116	113
